# ChEMBL document CHEMBL1201862, “PubChem BioAssay data set” (2004)
# Calls of active or inactive are those of the source.
# What was measured:
# [1] = system: HeLa; experiment: viability loss in HeLa cells – cell-based, 24 h, cherry-picked samples, cytotoxicity control, dose response (AID 504726); format: functional; settings: Homo sapiens;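 note: potency for cytotoxicity as loss of luminescence signal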
# [2] = target: Mothers against decapentaplegic homolog 3 (Homo sapiens, UniProt P84022); experiment: blockers of Smad3 complex formation in lysate – cell lysate, secondary confirmation, chemiluminescent ELISA, HEK293 lysate, dose response (AID 1058); format: functional
# [3] = target: T1, Eukaryotic translation initiation factor 2-alpha kinase 3 (Homo sapiens, UniProt Q9NZJ5); experiment: Counterscreen assay for PERK inhibitors: Dose response cell-based high throughput screening assay to measure inhibition of PERK at 6 hours. [Related pubchem assays: 1522, 1416 ]; format: functional
# T1 sequence (Q9NZJ5 whole entry): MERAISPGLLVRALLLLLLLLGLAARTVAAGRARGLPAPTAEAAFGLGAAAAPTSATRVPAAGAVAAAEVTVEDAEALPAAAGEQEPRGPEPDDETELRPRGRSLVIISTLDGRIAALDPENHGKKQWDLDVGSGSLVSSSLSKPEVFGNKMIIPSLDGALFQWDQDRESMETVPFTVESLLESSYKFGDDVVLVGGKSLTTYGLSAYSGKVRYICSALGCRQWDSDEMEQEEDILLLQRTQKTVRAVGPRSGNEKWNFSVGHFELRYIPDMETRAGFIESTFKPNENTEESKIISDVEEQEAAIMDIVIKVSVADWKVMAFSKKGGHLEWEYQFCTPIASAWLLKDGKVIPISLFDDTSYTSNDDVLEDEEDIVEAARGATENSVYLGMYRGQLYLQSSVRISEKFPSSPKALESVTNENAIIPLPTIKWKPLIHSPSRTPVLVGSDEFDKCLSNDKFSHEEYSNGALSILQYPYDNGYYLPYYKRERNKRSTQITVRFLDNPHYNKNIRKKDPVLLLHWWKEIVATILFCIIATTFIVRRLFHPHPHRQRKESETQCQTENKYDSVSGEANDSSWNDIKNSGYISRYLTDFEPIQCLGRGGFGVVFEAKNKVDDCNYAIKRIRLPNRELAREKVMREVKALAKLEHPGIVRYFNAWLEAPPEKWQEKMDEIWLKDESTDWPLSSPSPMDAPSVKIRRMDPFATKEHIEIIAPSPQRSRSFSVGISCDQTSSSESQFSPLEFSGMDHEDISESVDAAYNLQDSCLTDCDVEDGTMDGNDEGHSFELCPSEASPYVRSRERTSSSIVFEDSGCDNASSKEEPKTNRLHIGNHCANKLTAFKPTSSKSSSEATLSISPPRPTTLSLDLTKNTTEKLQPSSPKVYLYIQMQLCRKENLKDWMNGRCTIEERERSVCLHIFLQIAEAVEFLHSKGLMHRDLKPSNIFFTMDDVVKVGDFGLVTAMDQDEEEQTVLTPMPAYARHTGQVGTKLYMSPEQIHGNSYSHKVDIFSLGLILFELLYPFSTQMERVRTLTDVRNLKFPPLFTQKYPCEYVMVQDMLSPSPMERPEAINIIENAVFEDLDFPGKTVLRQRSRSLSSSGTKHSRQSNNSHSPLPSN
# [4] = target: T1, Eukaryotic translation initiation factor 2-alpha kinase 3; experiment: Dose response cell-based high-throughput screening assay to measure PERK inhibition. [Related pubchem assays: 1416 ]; format: functional
# [5] = target: Cytochrome P450 2C19 (Homo sapiens, UniProt P33261); experiment: Cytochrome panel assay with activity outcomes. Panel member name: p450-cyp2c19 Compounds with AC50 equal or less than 10 uM are considered active; format: functional; settings: read-out: AC50
# [6] = target: Cytochrome P450 2C9 (Homo sapiens, UniProt P11712)
# [7] = target: T2, Alkaline phosphatase, tissue-nonspecific isozyme (Homo sapiens, UniProt P05186)
# T2 sequence (P05186 whole entry): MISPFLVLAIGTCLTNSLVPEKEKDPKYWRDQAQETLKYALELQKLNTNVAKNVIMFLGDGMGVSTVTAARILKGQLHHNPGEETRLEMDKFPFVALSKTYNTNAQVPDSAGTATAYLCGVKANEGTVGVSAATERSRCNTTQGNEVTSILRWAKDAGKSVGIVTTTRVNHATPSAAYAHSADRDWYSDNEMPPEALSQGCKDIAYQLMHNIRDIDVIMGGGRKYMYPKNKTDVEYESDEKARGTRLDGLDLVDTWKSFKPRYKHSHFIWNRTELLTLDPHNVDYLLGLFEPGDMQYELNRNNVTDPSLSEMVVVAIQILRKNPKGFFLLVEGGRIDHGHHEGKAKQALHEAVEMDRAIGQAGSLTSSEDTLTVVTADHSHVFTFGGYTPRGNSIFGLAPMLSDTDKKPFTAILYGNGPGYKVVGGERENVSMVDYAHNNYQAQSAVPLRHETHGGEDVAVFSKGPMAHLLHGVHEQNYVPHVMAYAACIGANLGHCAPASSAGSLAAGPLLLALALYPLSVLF
# [8] = system: Streptococcus; experiment: GAS UMAA2166 growth inhibition – luminescence, BacTiterGlo, counter-screen for streptokinase expression inhibitor project, dose response (AID 1915); format: functional, organism-based;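 note: potency for reduction of bacterial viability or growth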
# [9] = system: Streptococcus sp. 'group A'; experiment: Streptococcus pyogenes SK(-)GAS viability under kanamycin – luminescence, BacTiterGlo, confirmation, counter-screen for streptokinase expression inhibitor project, dose response (AID 1900); format: functional, organism-based
# [10] = target: T3, Hexokinase HKDC1 (Homo sapiens, UniProt Q2TB90); experiment: inhibition of HKDC1 glucose phosphorylation – biochemical, W721R variant, dose response (AID 504729); format: functional
# T3 sequence (Q2TB90 whole entry): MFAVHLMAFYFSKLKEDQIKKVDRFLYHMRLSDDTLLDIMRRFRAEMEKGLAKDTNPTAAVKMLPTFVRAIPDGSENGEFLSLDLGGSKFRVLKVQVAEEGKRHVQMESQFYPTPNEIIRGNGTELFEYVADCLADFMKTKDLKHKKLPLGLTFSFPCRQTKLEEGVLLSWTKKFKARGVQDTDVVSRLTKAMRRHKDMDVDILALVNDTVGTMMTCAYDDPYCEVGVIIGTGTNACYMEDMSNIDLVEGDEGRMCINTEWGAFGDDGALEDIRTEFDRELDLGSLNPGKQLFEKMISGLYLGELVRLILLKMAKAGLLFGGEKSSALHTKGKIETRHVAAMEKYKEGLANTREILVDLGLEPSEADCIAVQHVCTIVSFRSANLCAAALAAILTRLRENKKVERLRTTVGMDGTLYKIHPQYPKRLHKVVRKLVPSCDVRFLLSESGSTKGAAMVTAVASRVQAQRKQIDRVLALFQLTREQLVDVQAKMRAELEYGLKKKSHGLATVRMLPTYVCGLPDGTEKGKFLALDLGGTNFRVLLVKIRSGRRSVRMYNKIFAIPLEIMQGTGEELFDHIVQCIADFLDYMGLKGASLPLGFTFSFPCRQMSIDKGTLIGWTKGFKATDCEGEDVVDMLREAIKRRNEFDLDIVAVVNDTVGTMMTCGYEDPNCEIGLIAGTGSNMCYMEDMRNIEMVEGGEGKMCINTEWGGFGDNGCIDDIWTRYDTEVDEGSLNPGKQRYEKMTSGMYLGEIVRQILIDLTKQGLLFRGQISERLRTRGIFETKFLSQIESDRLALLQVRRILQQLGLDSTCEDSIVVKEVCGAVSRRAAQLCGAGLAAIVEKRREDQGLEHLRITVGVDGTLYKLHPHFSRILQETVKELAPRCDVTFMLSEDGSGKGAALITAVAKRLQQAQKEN
# [11] = target: T4, Streptokinase A (Streptococcus pyogenes serotype M1, UniProt P10520); experiment: viability-normalized secreted streptokinase activity reduction – plasminogen activation absorbance, OD405, dose response (AID 1914); format: functional, Streptococcus pyogenes M1 GAS;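 note: secreted streptokinase activity via plasminogen activation per viability signal from cell pellet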
# T4 sequence (P10520 whole entry): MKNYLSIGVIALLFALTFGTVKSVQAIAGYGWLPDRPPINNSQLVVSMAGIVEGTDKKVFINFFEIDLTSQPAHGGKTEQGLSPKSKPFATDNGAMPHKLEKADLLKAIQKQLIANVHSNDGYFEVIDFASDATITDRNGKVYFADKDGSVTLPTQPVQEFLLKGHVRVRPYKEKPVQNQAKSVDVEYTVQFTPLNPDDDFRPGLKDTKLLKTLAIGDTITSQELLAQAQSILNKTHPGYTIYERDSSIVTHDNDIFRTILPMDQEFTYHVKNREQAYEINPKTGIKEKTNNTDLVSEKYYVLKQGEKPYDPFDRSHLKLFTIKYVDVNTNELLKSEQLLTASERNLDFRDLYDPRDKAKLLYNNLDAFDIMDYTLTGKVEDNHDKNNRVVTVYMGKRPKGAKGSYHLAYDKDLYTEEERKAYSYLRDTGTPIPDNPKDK
# [12] = A Cell Based Secondary Assay To Explore Cytotoxicity of Compounds that Sensitize Mycobacterium Tuberculosis to Beta-Lactam Antibiotics.; format: functional
# [13] = Luminescence Cell-Based Dose Retest to Confirm Inhibitors of Cancer Stem Cells. [Related pubchem assays (depositor defined):AID2717, AID2721]; format: functional; settings: Homo sapiens
# [14] = viability loss in MITF-independent A375 cells – cell-based, CellTiter-Glo luminescence, dry powder, set 2, counter-screen for MITF inhibitor project, dose response (AID 624489); format: functional; settings: A-375;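 note: actives are compounds lowering A375 viability meaning general cytotoxicity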
# [15] = target: T5, Microphthalmia-associated transcription factor (Homo sapiens, UniProt O75030); experiment: reducers of TRPM1 reporter luminescence, concentration series – cell-based, SK-MEL-5, cherry-picked, set 3, MITF inhibitor project, dose response (AID 493073); format: functional;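 note: SK-MEL-5 melanoma cells with luciferase driven by the MITF target TRPM1 promoter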
# T5 sequence (O75030 whole entry): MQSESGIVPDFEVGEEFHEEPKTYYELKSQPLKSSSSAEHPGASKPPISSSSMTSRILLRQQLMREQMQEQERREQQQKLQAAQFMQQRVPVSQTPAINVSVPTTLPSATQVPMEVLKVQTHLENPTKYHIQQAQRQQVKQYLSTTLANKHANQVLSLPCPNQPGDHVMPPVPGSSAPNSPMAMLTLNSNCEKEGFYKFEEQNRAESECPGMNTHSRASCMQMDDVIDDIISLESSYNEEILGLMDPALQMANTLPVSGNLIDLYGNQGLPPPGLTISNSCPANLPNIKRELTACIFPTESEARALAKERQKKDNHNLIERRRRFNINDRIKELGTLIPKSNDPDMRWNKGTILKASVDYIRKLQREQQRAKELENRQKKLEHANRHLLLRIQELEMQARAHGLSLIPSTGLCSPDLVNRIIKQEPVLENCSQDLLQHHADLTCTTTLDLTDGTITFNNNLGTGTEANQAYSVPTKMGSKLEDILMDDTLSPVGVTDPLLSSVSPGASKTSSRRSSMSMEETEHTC
# [16] = cytotoxicity in MITF-independent A375 cells – cell-based, CellTiter-Glo luminescence, dry powder, set 4, counter-screen for MITF inhibitor project, dose response (AID 624364); format: functional; settings: A-375;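 note: A375 melanoma cells are MITF independent so this is a counter screen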
# Mothers against decapentaplegic homolog 3, sequence (P84022 whole entry): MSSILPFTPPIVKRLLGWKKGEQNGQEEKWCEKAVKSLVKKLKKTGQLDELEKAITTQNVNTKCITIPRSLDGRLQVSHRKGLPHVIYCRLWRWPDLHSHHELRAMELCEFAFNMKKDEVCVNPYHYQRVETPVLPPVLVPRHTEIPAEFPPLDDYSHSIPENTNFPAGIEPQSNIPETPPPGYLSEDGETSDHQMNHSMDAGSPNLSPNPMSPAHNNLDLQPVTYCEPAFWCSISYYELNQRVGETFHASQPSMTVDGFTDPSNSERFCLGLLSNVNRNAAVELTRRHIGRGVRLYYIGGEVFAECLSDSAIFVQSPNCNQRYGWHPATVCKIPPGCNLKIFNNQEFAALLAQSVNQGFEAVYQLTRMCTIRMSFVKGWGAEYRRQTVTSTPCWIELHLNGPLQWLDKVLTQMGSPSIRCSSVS
# Cytochrome P450 2C9, sequence (P11712 whole entry): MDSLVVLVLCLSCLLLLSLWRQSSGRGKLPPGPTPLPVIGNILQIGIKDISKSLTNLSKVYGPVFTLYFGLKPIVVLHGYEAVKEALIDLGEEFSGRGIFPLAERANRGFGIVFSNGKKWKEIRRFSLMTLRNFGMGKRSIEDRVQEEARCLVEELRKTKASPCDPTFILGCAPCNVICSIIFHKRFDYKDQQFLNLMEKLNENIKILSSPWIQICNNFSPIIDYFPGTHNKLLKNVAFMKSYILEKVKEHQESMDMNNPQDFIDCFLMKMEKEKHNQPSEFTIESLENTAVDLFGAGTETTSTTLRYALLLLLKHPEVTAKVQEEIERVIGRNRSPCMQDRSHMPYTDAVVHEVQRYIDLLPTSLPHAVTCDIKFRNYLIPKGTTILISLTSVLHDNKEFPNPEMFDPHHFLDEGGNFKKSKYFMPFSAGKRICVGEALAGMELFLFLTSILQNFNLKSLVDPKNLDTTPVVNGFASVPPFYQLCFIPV
# Cytochrome P450 2C19, sequence (P33261 whole entry): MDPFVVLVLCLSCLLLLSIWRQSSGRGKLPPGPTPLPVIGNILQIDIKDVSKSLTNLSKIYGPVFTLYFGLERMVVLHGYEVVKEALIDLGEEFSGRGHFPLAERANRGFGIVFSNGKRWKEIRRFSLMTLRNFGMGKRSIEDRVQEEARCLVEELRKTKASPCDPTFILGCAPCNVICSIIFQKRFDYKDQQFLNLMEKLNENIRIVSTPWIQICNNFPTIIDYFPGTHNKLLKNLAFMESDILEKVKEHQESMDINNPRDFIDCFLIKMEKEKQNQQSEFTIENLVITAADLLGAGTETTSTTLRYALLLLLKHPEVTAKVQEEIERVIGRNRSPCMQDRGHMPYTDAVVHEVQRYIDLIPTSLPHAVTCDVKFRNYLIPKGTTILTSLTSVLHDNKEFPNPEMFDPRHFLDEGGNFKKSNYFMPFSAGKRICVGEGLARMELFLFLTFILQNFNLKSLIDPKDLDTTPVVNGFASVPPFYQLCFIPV
smiles,measurement,setting,value
CCOc1ccc(C(C)NC(=O)c2ccccc2OCc2c(C)noc2C)cc1OCC (stereo not given),AC50,[1],113 µM (active)
COc1cccc(C(c2cc3c(cc2O)OCO3)N2CCOCC2)c1OC (stereo not given),IC50,[2],6.43 µM (not active)
CCN(C(=O)COC(=O)CCCOc1ccc(Cl)cc1C)c1c(N)n(Cc2ccccc2)c(=O)[nH]c1=O,AC50,[1],43.7 µM (active)
Cc1nc([N+](=O)[O-])cn1CCC#N,EC50,[3],> 55.7 µM (not active)
same,EC50,[4],> 55.7 µM (not active)
O=C(CCN1C(=O)/C(=C/c2cccc(Br)c2)SC1=S)NNC(=O)c1cccnc1,AC50,[5],1.58 µM (inconclusive)
same,AC50,[6],0.447 µM (inconclusive)
same,EC50,[7],83.8 µM (not active)
N#C/C(=C(/O)CCl)c1nc2c(s1)CCc1ccccc1-2,EC50,[8],> 150 µM (not active)
same,EC50,[9],> 150 µM (not active)
same,IC50,[10],17.4 µM (active)
same,EC50,[11],> 150 µM (not active)
CC1CCN(CC(CS(=O)(=O)c2ccc([N+](=O)[O-])cc2)N2CCC(C)CC2)CC1 (stereo not given),CC50,[12],7.41 µM (active)
same,AC50,[13],1.59 µM (active)
same,AC50,[14],> 70 µM (inactive)
same,AC50,[15],6.62 µM (active)
same,AC50,[16],> 70 µM (inactive)
CC(C)(C)N1CCC1CN (stereo not given),EC50,[3],> 55.7 µM (not active)
same,EC50,[4],> 55.7 µM (not active)
O=C1OC2(c3ccc(O)cc3Oc3cc(O)ccc32)c2ccccc21 [FLUORESCEIN],IC50,[2],4.89 µM (not active)
